Test results from US20090285887A1, “Pharmaceutical Composition Comprising A Plurality of Mini-Tablets Comprising A Factor XA Inhibitor” (priority 2006, published 2009).

Test: Preliminary pharmacokinetic analysis of absorption throughout the GI tract
Assay type: in vivo
Excerpt: In one aspect of the invention, the pharmaceutical composition enables the Factor Xa inhibitor to be absorbed throughout the GI tract, i.e. in the duodenum (proximal small intestine), ileum (distal small intestine) and cecum/colon. […] Accordingly, this comprises a further aspect of the invention.

C[C@@H](C(=O)N1CCOCC1)N1CC[C@H](NS(=O)(=O)/C=C/c2ccc(Cl)s2)C1=O [Compound A, (E)-2-(5-chlorothien-2-yl)-N-{(3S)-1-[(1S)-1-methyl-2-morpholin-4-yl-2-oxoethyl]-2-oxopyrrolidin-3-yl}ethenesulfonamide]
absorption throughout the GI tract: may be absorbed throughout the GI tract
